# Results: patent USRE49873E1, “APP specific bace inhibitors (ASBIs) and uses thereof” (BUCK INSTITUTE FOR RESEARCH ON AGING, priority 2012, dated 2024)
# “Also recorded” adds a separate entry of the source.
# Tests used:
# [1] = system: APP-Gal4 transactivation in HEK293T cells; test: APP-Gal4/Mint3/TAZ transactivation assay; type: cell-based; settings: Mint3 and TAZ present, galangin at 10 μM
# Excerpt: FIGS. 7A and 7B illustrate inhibition of APP-Gal4 and APLP2-Gal4 transactivation by galangin. […] This transactivation was inhibited by Galangin and BACE inhibitor IV. FIG. 7B: Potent transactivation of transcription was also achieved with APLP2 fused to the Gal4 DNA binding domain when both Mint3 and TAZ were present. This transactivation was inhibited by Galangin and BACE inhibitor IV. […] The normalized luciferase activity is expressed as a percentage of the DMSO treated control (FIGS. 7A, 7B). Error bars indicate SEM. (*, p<0.05; **, p<0.01; ***, p<0.001; n=3, student t test).
# This assay system is described by Orcholski et al. (2011) J. Alzheimers Dis., 23(4):689-699. Transactivation is achieved upon transfection with Mint3 and Taz. The ASBI was expected to inhibit only the transactivation of APP-Gal4, not that of APLP2-Gal4. For these experiments cells were co-transfected with a Gal4-luciferase reporter plasmid (to measure transactivation), a beta-galactosidase plasmid (to normalize for transfection efficiency), and the test plasmids identified. The normalized luciferase activity was expressed as fold induction over transcription by APP-Gal4 alone (FIG. 7A), or as fold induction over APLP2-Gal4 alone (FIG. 7B).
# HEK293T cells were co-transfected with five plasmids: (1) pG5E1B-luc, 0.3 μg; (2) pCMV-LacZ, 0.1 μg; (3) pMst-APP (APP-Gal4) or pcDNA3.1-APLP2-Gal4, 0.3 μg; (4) pCMV5-Mint3, 1.0 μg; (5) pEF-N-FLAG-TAZ, 1.0 μg. Cells were harvested 48 hr after transfection in 0.2 ml per well Cell Culture Lysis Buffer (Promega), and their luciferase and β-galactosidase activities were determined with the Promega luciferase assay kit and the Promega β-galactosidase assay kit, respectively. The luciferase activity was standardized by the β-galactosidase activity to control for transfection efficiency and general effects on transcription. Transfections were performed at 80-90% cofluency in six-well plates using Lipofectamine 2000 (Invitrogen).
# [2] = target: MBP-C125 APP (Homo sapiens, UniProt P05067); test: Nitrocellulose filter ligand-binding (ligand blot) assay; settings: qualitative; UV and MALDI detection
# Chain of MBP-C125 APP (P05067 646-770 limits assumed): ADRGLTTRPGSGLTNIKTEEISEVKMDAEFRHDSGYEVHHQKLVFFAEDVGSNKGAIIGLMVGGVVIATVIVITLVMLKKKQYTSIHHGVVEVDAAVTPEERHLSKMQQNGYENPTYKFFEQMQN
# Procedure: To explore the interaction of ASBIs with APP a ligand blot technique was used, where MBP-C125 APP was dot blotted on a nitrocellulose blot and binding to the protein was detected upon treatment with the bioflavonoids. A nitrocellulose filter-binding assay with bovine serum albumin (BSA) was used as a control. The binding of bioflavonoids was determined using both UV and MALDI mass spectrometric analysis.
# [3] = in vivo; design: species or system mice; settings: mouse
# Procedure: The brain penetrance of galangin and progalangin were assessed in a standard PK comprising subcutaneous (Sub-Q) injection of 5 adult non-transgenic mice with 50 ul of a 5 mg/ml stock of compound in dimethylsulfoxide (DMSO) or a dose of 10 mg/kg for a 25 g mouse. Injected mice were anesthetized with ketamine/xylazine at 1, 2, 4, 6, and 8 hours and blood collected by cardiac puncture. The mice were then perfused with saline and brain tissue dissected and snap frozen on dry ice. Blood was centrifuged at 3000 rpm for 10 minutes and the plasma supernatant collected. Both plasma and the right hemibrain were sent to Integrated Analytical Solutions (IAS, Berkeley, Calif.) with a reference sample of compound for compound level analysis in tissue and plasma. The compound levels were determined using a LC-MS/MS approach.
# CNS exposure studies were performed and consisted of a time-course design to collect heparinized plasma and brains. Following sc administration of the galangin or progalangin (compound-2) at 10 mg/kg, plasma and brain levels of the compounds were determined by quantitative LC/MS/MS methodology. Plasma samples were precipitated with acetonitrile:methanol (1:1) cocktail containing an internal standard. The brain samples were homogenized directly in ethylacetate or extracted from 5M guanidine homogenates with the liquid-liquid method. The resulting supernatant was evaporated to dryness and subjected to the LC/MS/MS analysis. For each compound 5 mice were used for the analysis. The brain-to-plasma ratios and plasma/brain Cmax levels were then determined (see, e.g., FIG. 8).
# [4] = system: Aβ1-40 and Aβ1-42 levels in hippocampal/entorhinal cortical tissue; test: Pilot efficacy testing in PDAPP (J20) AD model mice, Aβ ELISA; type: in vivo; settings: 40 mpk sc daily for 14 days, hippocampus and cortex
# Procedure: Galangin and progalangin (PG-1) were dissolved in 10% solutol/15% DMSO/75% polyethylene glycol (PEG). Stock solutions were prepared at 10 mg/ml for each compound and 100 ul was injected subcutaneously daily for 14 days at a dose of 40 mkd. There were 5 PDAPP AD model J20 mice in both the galangin and progalangin groups, and 9 vehicle-only treated J20 controls. Mice were anesthetized, blood collected for plasma, and brain tissue collected as described above 2 hours after injection on the last day of treatment. The right hemibrain was further microdissected to isolate hippocampus and entorhinal cortex and this combined tissue was used for biochemical analysis. The remaining tissue and plasma was sent to IAS for compound level analysis.
# Aβ1-42 and Aβ1-40 levels were determined using the hippocampal/entorhinal cortical tissue. Briefly, frozen tissue samples were weighed, and a 20% w/v sonicate prepared in 5M guandine-HCl/50 mM Tris, pH8. Sonication was performed with sample tubes in ice water, 4×5 seconds at 60 Hz, then 3×5 seconds at 80 Hz. Samples were then rotated at room temperature for 3 hours and frozen at −20° C. until assay. Invitrogen ELISA kits were used for Aβ1-40 and Aβ1-42 according to the manufacturer's instructions.
# [5] = system: autophagy; settings: Wen et al. (2012); cited from earlier work
smiles,measurement,setting,value
O=c1c(O)c(-c2ccccc2)oc2cc(O)cc(O)c12 [Galangin],APP-Gal4 transactivation,[1],inhibited
same,APP-Gal4 transactivation,[1]; listed as galangin,inhibit; also recorded: inhibits APP-Gal4 and APLP2-Gal4
same,binding to the APP substrate,[2],shows binding to the APP substrate
same,brain penetration,[3],did show some brain penetration
same,plasma levels versus brain tissue levels,[3],Plasma levels were greater than brain tissue levels
same,brain Cmax of galangin,"[3]; sc, 10 mg/kg",~50 ng/g
same,brain to plasma ratio,"[3]; sc, 10 mg/kg",1:10
same,concentration at 1 h,"[3]; sc, 10 mg/kg",40 ng/g
same,Aβ1-42 (Aβ42) levels in brain,[4],unchanged
same,Aβ1-40 (Aβ40) levels in brain,[4]; 40 mg/kg,some reduction of Aβ40; also recorded: slightly lower
same,induction of autophagy,[5],induce autophagy
